In patent US20190226949A1, “IRIDIUM COMPLEXES FOR CELLULAR IMAGING” (UNIVERSITY OF SOUTH AUSTRALIA, priority 2016, published 2019):
“And” between values parts separate entries of the source, which are not always exact repeats. Identical values can stand only once. “Also recorded” adds a separate entry of the source.

How the values were obtained:
[1] = system: prostate cancer 22RV1 cells; test: Staining of prostate cells with lipid dyes, 22RV1; format: cell-based, Human; details: 22RV1 fixed in 4% paraformaldehyde, 30 minutes
Method: (§1) The fluorescent dyes, Filipin and BODIPY® 493/503, were incubated for 30 minutes with each of the four prostate cell lines (i.e. PNT1a, DU145, 22RV1 and LNCaP), fixed in 4% paraformaldehyde and imaged under confocal microscopy, which was supplemented with two-photon Mai-Tai® and Argon lasers. Prostate cell lines grown on coverslips were stained with ReZolve-L1™ and IraZolve [Ir(ppy)2(TzPyCN)] in serum-free media for 30 minutes at 37° C. and 5% CO2 and imaged in live mode, avoiding the process of fixation. From this experiment, different staining patterns between prostate cell lines and the fluorescent dyes were clearly seen (FIG. 12). For example, the level of diffuse cytosolic staining vs membrane staining with Filipin varied between cell lines (FIG. 12 a-d). […] Differences in the 22RV1 and LNCaP staining pattern in comparison to PNT1a and DU145 were apparent with BODIPY® 493/503 fluorescent dye. […] The fluorescence of ReZolve-L1™ was low in non-malignant control PNT1a cells, when compared to prostate cancer cells (FIG. 12i-l). […] These positive results prompted us to analyse staining of the prostate cells with the fluorescent dye IraZolve (FIG. 12m-p). […] In contrast, the intensity of staining in the malignant cell lines DU145, 22RV1 and LNCaP with ReZolve-L1™ was significant. […]

[2] = system: non-malignant control PNT1a cells; test: Staining of prostate cells with lipid dyes, PNT1a; format: cell-based, Human; details: PNT1a fixed in 4% paraformaldehyde, 30 minutes
Method: as §1

[3] = system: prostate cancer DU145 cells; test: Staining of prostate cells with lipid dyes, DU145; format: cell-based, Human; details: DU145 fixed in 4% paraformaldehyde, 30 minutes
Method: as §1

[4] = system: prostate cancer LNCaP cells; test: Staining of prostate cells with lipid dyes, LNCaP; format: cell-based, Human; details: 30 minutes
Method: as §1

[5] = previously published complex; cited from earlier work
[6] = Lipophilicity by shake-flask method (7.4-buffered PBS / n-octanol); format: physicochemical; details: 7.4-buffered PBS solution and n-octanol
Method: The lipophilicity of the iridium complexes was measured by the shake-flask method using 7.4-buffered PBS and n-octanol as solvents (Table 2). The values range between 1.49 and 2.68 are typical for cyclometalated iridium complexes that have not been bioconjugated. […] In general, neutral complexes have log D7.4 values above 2.00 and there is an increased in lipophilicity of extending the tetrazolato ligand with the addition of a phenyl spacer in [Ir(ppy)2(TzPyPhCN)], or by extending the conjugation on passing from pyridine to quinoline or isoquinoline for [Ir(ppy)2(TzQn)] and [Ir(ppy)2(TziQn)]. Methylation in all cases reduces lipophilicity to log D7.4 values […], with the same trend within the family of methylated complexes as previously observed for the neutral ones.

[7] = Photophysical measurements (absorption, emission, lifetime, quantum yield) in diluted solutions; format: physicochemical
Excerpt: A summary of the photophysical data for the complexes as diluted solutions (10^−5 M) in dichloromethane, water, PBS, lysosomal fluid solution, and ethyl laurate is reported in Table 1. All the listed aqueous media also contain 0.1% DMSO to favour the solubilisation of the complexes. The various solvents have been chosen to identify potential modulations on the photophysical behaviour of the iridium complexes in diverse cellular environments such as cytoplasm, endosome/lysosomes acidic organelles, or lipid-rich compartments like membranes, endoplasmic reticulum, and lipid droplets. In general, the photophysical characteristics were measured in aerated solutions to take into account the presence of oxygen in live cells. On the other hand, dichloromethane solutions were compared as aerated and degassed to confirm oxygen sensitivity and triplet character of the excited states of the complexes.
Absorption spectra were recorded at room temperature using a Cary 4000 UV/Vis spectrometer. Uncorrected steady state emission and excitation spectra were recorded on an Edinburgh FLSP980-S2S2-stm spectrometer equipped with: i) a temperature-monitored cuvette holder; ii) 450 W Xenon arc lamp; iii) double excitation and emission monochromators; iv) a Peltier cooled Hamamatsu R928P photomultiplier tube (spectral range 200-870 nm). Emission and excitation spectra were corrected for source intensity (lamp and grating) and emission spectral response (detector and grating) by a calibration curve supplied with the instrument. According to the approach described by Demas and Crosby, luminescence quantum yields (Φem) were measured in optically dilute solutions (O.D.<0.1 at excitation wavelength) obtained from absorption spectra on a wavelength scale [nm] and compared to the reference emitter by the following equation: […]
where A is the absorbance at the excitation wavelength (λ), I is the intensity of the excitation light at the excitation wavelength (λ), n is the refractive index of the solvent, D is the integrated intensity of the luminescence and Φ is the quantum yield. The subscripts r and x refer to the reference and the sample, respectively. The quantum yield determinations were performed at identical excitation wavelength for the sample and the reference, therefore cancelling the I(λr)/I(λx) term in the equation. The quantum yields of complexes were measured against Rubipy in water (Φr=0.028). Emission lifetimes (z) were determined with the time correlated single photon counting technique (TCSPC) with the same Edinburgh FLSP980-S2S2-stm spectrometer using either a pulsed picosecond LED (EPLED/EPL 377 nm, FHWM<800 ps) or a microsecond flashlamp. The goodness of fit was assessed by minimising the reduced χ^2 function and by visual inspection of the weighted residuals. The solvents used for the preparation of the solutions for the photophysical investigations were of LR grade and the water was deionised. Degassing of the dichlorometane solutions was performed using the freeze-pump-thaw method. Experimental uncertainties are estimated to be ±8% for lifetime determinations, ±20% for quantum yields, ±2 nm and ±5 nm for absorption and emission peaks, respectively.

CCCCC[C@@H](O)[C@H]1C(=O)O[C@H](C)[C@@H](O)/C=C/C=C/C=C/C=C/C=C(\C)[C@@H](O)C[C@H](O)C[C@H](O)C[C@H](O)C[C@H](O)C[C@H](O)C[C@@H]1O [Filipin, reference compound]
staining pattern [1]: quite bright vesicular and plasma membrane staining
staining pattern [2]: a number of small vesicles were brightly stained
staining pattern [3]: relatively low level
staining pattern ([4]; LNCaP fixed in 4% paraformaldehyde): a number of small vesicles were brightly stained

c1cc[c]2c(c1)-c1cccc[n+]1[Ir]213([c]2ccccc2-c2cccc[n+]21)[n]1nnnc1-c1cccc[n+]13 [[Ir(ppy)2(TzPy)]]
λem, structured emission [5]: 481 nm and 510 nm

CC1=CC(C)=[N+]2C1=C(C)c1c(C)cc(C)n1[B-]2(F)F [BODIPY® 493/503, reference compound]
staining pattern [1]: diffused cytosolic staining and localised staining to lipid droplets
staining pattern [2]: localised staining to lipid droplets
staining pattern [3]: localised staining to lipid droplets

N#Cc1ccc2[n+](c1)[Ir]13([c]4ccccc4-c4cccc[n+]41)([c]1ccccc1-c1cccc[n+]13)[n]1nnnc1-2 [[Ir(ppy)2(TzPyCN)]]
logD7.4, distribution coefficient [6]: 2.09 ± 0.06
Absorption λabs [nm] (10^4ε [M^−1cm^−1]) ([7]; DCM, 10^−5 M): 263 (6.57) nm (10^4ε [M^−1cm^−1]) and 339 (1.59) nm (10^4ε [M^−1cm^−1]) and 382 (1.09) nm (10^4ε [M^−1cm^−1]) and 420 (0.58) nm (10^4ε [M^−1cm^−1])
Emission λem ([7]; DCM, 298K, 10^−5 M): 618 nm
τaer, excited state lifetime (relative weight in parentheses) ([7]; DCM, aerated, 298K): 131 ns
Φaer, quantum yield ([7]; DCM, aerated, versus Ru(bpy)3^2+ in water (φr = 0.028)): 0.055
τdeaer, excited state lifetime (relative weight in parentheses) ([7]; DCM, deaerated, 298K): 529 ns
Φdeaer, quantum yield ([7]; DCM, deaerated, versus Ru(bpy)3^2+ in water (φr = 0.028)): 0.397
knr ([7]; DCM, calculated as [(1 − φ)/τ] from deaerated solutions): 1.140 10^6s^−1
kr ([7]; DCM, calculated as [φ/τ] from deaerated solutions): 7.505 10^5s^−1
Emission λem ([7]; H2O with 0.1% DMSO, 298K, aerated): 618 nm
Φ, quantum yield ([7]; H2O with 0.1% DMSO, aerated, versus Ru(bpy)3^2+ in water): 0.047
staining pattern / intensity ([4]; live LNCaP, 20 μM, serum-free media, listed as IraZolve): stains the endoplasmic reticulum, where both phospholipids and triacylglycerides are synthesised, and it also co-localises with fatty acids in lipid droplets; also recorded: almost identical to that observed for ReZolve-L1™; also recorded: significantly greater
